The Kinase Knowledgebase extract (Sharma et al. 2016)

How the values were obtained:
CDK2 (human) = CDK2 (human) (UniProt P24941); test: Enzyme Assay; settings: concentration not given here
MAPK14 (human) = MAPK14 (human) (UniProt Q16539); test: Inhibition of MAPK14 Kinase Activity; settings: concentration not given here
Sequence of MAPK14 (human) (Q16539 whole entry, looked up): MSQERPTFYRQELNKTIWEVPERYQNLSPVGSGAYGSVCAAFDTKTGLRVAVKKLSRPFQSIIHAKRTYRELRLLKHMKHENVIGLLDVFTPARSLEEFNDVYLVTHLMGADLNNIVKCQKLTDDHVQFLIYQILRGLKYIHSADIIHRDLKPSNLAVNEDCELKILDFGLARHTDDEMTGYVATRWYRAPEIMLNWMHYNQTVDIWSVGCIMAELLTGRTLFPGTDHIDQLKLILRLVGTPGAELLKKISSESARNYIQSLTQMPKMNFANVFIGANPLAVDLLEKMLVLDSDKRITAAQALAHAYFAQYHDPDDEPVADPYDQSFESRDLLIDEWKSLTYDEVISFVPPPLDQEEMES

| inhibition (CDK2 (human)) [%] | inhibition (MAPK14 (human)) [%] | SMILES |
| --- | --- | --- |
| 30 | 31 | O=C1NC(=O)C(c2cn(CCCO)c3ncccc23)=C1c1cnccn1 |
| 89 | 2 | COc1ncc(C2=C(c3cn(CCCO)c4ncccc34)C(=O)NC2=O)c(OC)n1 |
| 44 | 8 | Cn1ccc(C2=C(c3cn(CCCO)c4ncccc34)C(=O)NC2=O)n1 |
